{"source": "patent US6362396B1", "about": "“Chimeric gene for the transformation of plants” (Aventis Crop Science, priority 1992, dated 2002)", "key": {"tobacco PBD6 plants": {"test_system": "tobacco PBD6 plants", "assay": "Measurement of the glyphosate tolerance of transformed tobacco plants sown in the open", "assay_type": "in vivo", "details": "untransformed tobacco PBD 6 controls, 0.8 kg/ha, 5-leaf stage, 30 days after the treatment", "description": "The vector is introduced into the nononcogenic agrobacterium strain EHA 101 (Hood et al., 1987) carrying the cosmid pTVK 291 (Komari et al., 1986). The transformation method is based on the procedure of Horsh et al. (1985).\nThe regeneration of the tobacco PBD6 (source SEITA France) using foliar explants is carried out on a Murashige and Skoog (MS) basic medium containing 30 g/l of sucrose and […] of kanamycin. The foliar explants are removed from greenhouse- or in vitro-grown plants and transformed according to the foliar disc method (Science 1985, Vol. 227, p. 1229-1231) in three successive stages: the first comprises the induction of shoots on an MS medium supplemented with 30 g of sucrose containing 0.05 mg of naphthylacetic acid (ANA) and 2 mg/l of benzylaminopurine (BAP), for 15 days. The shoots formed during this stage are then developed by culturing on an MS medium supplemented with 30 g/l of sucrose, but not containing hormone, for 10 days. […]\nThe best plants obtained from the regeneration of transformed tobaccos are selected under a greenhouse after treating the plants, at the 5-leaf stage, […] […] Molecular hybridization analysis enabled the plants having integrated only one copy of the T-DNA to be determined. […]"}, "[1]": {"test_system": "Spring colzas, Westar cultivar", "assay": "Greenhouse glyphosate treatment of transformed spring colza", "assay_type": "in vivo", "details": "400 g a.s/ha", "source_text": "Spring colzas, Westar cultivar, resistant to glyphosate, were obtained using the method of BOULTER et al., 1990 (Plant Science, 70: 91-99), with the constructs pRPA-BL 488 (dH-At-PTO-aroA-nos), pRPA-BL 502 (CaMV/H-At-PTO- aroA-nos)."}}, "data": [{"smiles": "O=C(O)CNCP(=O)(O)O", "note": "[glyphosate, N-(phosphonomethyl)glycine]", "values": [{"measurement": "effect of glyphosate on control (untransformed) plants (phytotoxicity)", "setting": "tobacco PBD6 plants", "result": "completely destroyed"}, {"measurement": "effect of glyphosate treatment on nontransgenic plants", "setting": "[1]", "result": "destroys nontransgenic plants"}]}]}
